This assay addresses T1, 5-HT1D -like receptor (Oryctolagus cuniculus, UniProt P49144).
T1 construct: Ring segments of the vein (4-5 mm in length) were cut and the endothelium gently removed; from tissue; host or cells: saphenous vein rings, endothelium removed, male New Zealand White rabbit
The experiment in a line: 5-HT1D-like receptor agonist activity: contraction of the rabbit isolated saphenous vein. On the set-up: species or system rabbit (New Zealand White). The conditions noted are these: rabbit isolated saphenous vein rings, endothelium removed, 37° C., pH 7.4; prazosin, idazoxan and indomethacin (1 μM each) present; read-out: EC50 (concentration of the compound which causes 50% of the maximum contraction effected by it). How it is done:
The saphenous veins from both the left and right side were cleaned of fat and connective tissue and placed in Krebs solution (118 mM NaCl, 11 mM glucose, 25 mM NaHCO3, 4.7 mM KCl, 2.5 mM CaCl2.2H2 O, 1.2 mM KH2 PO4, and 1.2 mM MgSO4.7H2 O. Ring segments of the vein (4-5 mm in length) were cut and the endothelium gently removed. The segments were mounted in 10 mL baths containing Krebs buffer and were constantly aerated with 95% oxygen/5% carbon dioxide and maintained at 37° C. and pH 7.4 in order to record the isometric tension. A resting tension of 2.5 g was applied and the tissues allowed to equilibrate for 90 minutes, with washing every 15-20 minutes. After the equilibrium period, the rings were depolarized by the addition of two aliquots of KCl (80 mM final concentration) separated by a 20 minute washing period. The tissues were then exposed to prazosin, idazoxan and indomethacin (all 1 μM final concentration) for 30 minutes in order to exclude the actions of α1 - and α2 -adrenergic receptors and prostaglandin receptors respectively. […] Responses were calculated as a percentage of the maximal contraction evoked by 80 mM KCl. Only one compound was tested per preparation.
EC50 represents the concentration of the compound which causes 50% of the maximum contraction effected by it.

SMILES strings stand for the structures.

T1 sequence (P49144 whole entry): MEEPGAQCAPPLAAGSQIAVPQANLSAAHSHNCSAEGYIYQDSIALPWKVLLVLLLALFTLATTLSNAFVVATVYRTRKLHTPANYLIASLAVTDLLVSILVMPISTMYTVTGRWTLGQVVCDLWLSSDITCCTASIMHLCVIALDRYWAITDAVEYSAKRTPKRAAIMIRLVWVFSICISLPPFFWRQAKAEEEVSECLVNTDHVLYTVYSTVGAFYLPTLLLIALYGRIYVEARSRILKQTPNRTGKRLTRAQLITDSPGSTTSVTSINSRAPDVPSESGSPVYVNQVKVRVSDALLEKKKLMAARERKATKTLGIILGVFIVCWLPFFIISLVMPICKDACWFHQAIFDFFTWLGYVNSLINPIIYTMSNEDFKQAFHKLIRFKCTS

Take `Cc1cc(C(C)(C)C)cc(C)c1Cc1ncc[nH]1`: the EC50 stood at 0.13 µM. In the case of `Cc1cc(Br)cc(C)c1Cc1ncc[nH]1`, the EC50 worked out at 9.3 µM.

The record behind these values is patent US6288101A, “Imidazoles with serotonin receptor binding activity” (Virginia Commonwealth University, priority 1999, dated 2001).
